Data set [1] is described as follows: Solubility of iron chloride hexahydrate and iron complexes (visual / assayed). The class given is physicochemical. As for the experimental part:
Due to the high number of test samples (6 complexes plus the starting material, iron chloride hexahydrate) a visual solubility screen was used to screen the solubility in a range of solvents. […] Quantitative determination was performed by either incubating the complex in excess in the solvent using a shaking 37° C. water bath for 48 h or sonicating it for 2 hours at 40° C. or leaving overnight on a 50° C. hot plate. Once incubation period was completed, the exact solubility in a particular solvent was assayed (using the iron assay) after centrifugation (i.e. assay iron content in the supernatant using the Ferrozine® assay).

A short description of data set [2]: Solubility of cholecalciferol and cholecalciferol phosphate (disodium, acid). The class given is physicochemical. As to conditions: read-out: Solubility. As for the experimental part:
Aliquots of cholecalciferol, cholecalciferol phosphate disodium, and cholecalciferol phosphate acid were added to a range of solvents including propylene glycol (PG), distilled water, methanol, ethyl acetate, ethanol, n-hexane, and the visual solubility was determined. A precise assessment of the saturation solubility was for some of the solvent systems was made using high-performance liquid chromatography (HPLC). In the HPLC solubility studies, an excess of each solute was added into 2 mL of each test solvent. The solutions were left stirring overnight at room temperature, (RT), 22° C. The saturation of the solutions was confirmed by the visual appearance of crystals and the drug suspensions were filtered through 0.2 μm cellulose acetate syringe filters, diluted with excess of mobile phase, and the solute concentration of each sample was assessed using HPLC.

Data set [3] is described as follows: Chemical stability of cholecalciferol and cholecalciferol phosphate disodium in donor, extraction and receiver fluids. Type of data set: physicochemical. As to conditions: for remaining at 24 h: 37° C. As for the experimental part: To assess the chemical stability of the test agents in the liquids in which they were to be dissolved for the skin permeation experiments, 1 mg/mL solutions of cholecalciferol and cholecalciferol phosphate disodium in propylene glycol (PG) were prepared and incubated at 37° C. for 24 h. In addition, 100 μg/mL cholecalciferol in 50:50 PG:ethanol mixture, 100 μg/mL cholecalciferol phosphate disodium in 90:10 methanol:water mixture as well as and in 50% PG 40% Methanol: 10% water pH 3.2 (90:10) were also incubated at 37° C. for 24 hours.

Data set [4] is described as follows: Franz cell porcine skin permeation and deposition of iron from solutions. The class given is in vitro ADME. As for the experimental part: The permeation of the iron complexes from the formulations into and across porcine skin mounted on Franz cells with a receiver fluid was tested (FIG. 4). This was based on the principles of the FDA, SUPAC-SS guidelines. The developed colorimetric assay method was used for iron quantification.
On the day of the experiment, the skin was defrosted. For the full thickness studies, the subcutaneous fat removed (2.5 mm thick) and for the dermatomes skin studies the tissued was dermatomed to a 1 mm thickness. The tissue was cut into the appropriate size sections (2.19±0.21 cm^2) and mounted between donor and receiver compartments of Franz diffusion cells with the SC facing the donor compartment. Each cell was sealed using parafilm and 12 mm magnetic stir bars were placed into the receiver compartment. The receiver compartment was filled with the desired receiver solution and the Franz cells were placed in a stirring water bath at 37° C. Cells were allowed to equilibrate for 30 min after which the receiver fluid using was mixed using a syringe and the “zero hour” sample was withdrawn from the arm and compensate with the same volume of fresh pre-warmed solution. Following zero-hour sampling, the donor solution was placed in the donor compartment and covered with parafilm. Samples were withdrawn and compensated with fresh receiver solution at set time intervals for a 24 h duration. The iron in each sample was quantified using the method specified in Section 2.2.2.1. […] There was no matrix interference noted in the assay. […] For iron maltol a 80:20 PG:water receiver was used along with a complementary calibration for iron assay (iron chloride in PG:water). The donor solution for the iron maltol made at pH 1.6 was 200 μL of 100 mg/mL complex in Transcutul®, for iron maltol made at pH 4 the donor solution was 200 μL of 23 mg/mL complex in PG and for iron maltol made at pH 4 the donor solution was 150 μL of 16 mg/mL complex in 7.5:1.5:1:1 water:PG:dimethicone:ethanol.
Once the permeation studies were completed the donor solutions were collected into bottles containing the extraction solution. This was followed by skin surface cleaning using four cotton buds, the first two were wetted by the extraction fluid and the second two were used dry. Then two tape striping procedures were performed using 2 tapes to remove any iron on the skin surface with the tape being added to the donor solution and cotton buds in the donor recover vial. For the full skin thickness skin, the Stratum corneum, the dermal and the epidermal layers were isolated in the same way as the recovery method (Section 2.3.2.1). Extraction fluid (50:50 PBS:ethanol) was then added to the tissues, 4 mL to the Stratum corneum, and 2 mL for each of the epidermis and dermis. For the dermatomed skin the whole skin section was chopped up and placed in a 2 mL extraction fluid (ethanol).
The Stratum corneum samples were placed on vibrating plate for a minimum of 2 h to extract the iron and then vortexed prior assay. The epidermis, dermis or dermatomed samples however were incubated with the extraction fluid for 1 h after which were transferred to Eppendorf tubes, one stainless steel 5 mm bead was added and the samples were loaded into the TissuLyser II (Qiagen, Germany) for 30-15 min at 30 Hz. The samples were then centrifuged (5 min at 13,000 rpm) and supernatant assayed.

The nature of data set [5]: Iron complex adhesive compatibility and loading screen. The class given is physicochemical. As for the experimental part:
Pre-formulation studies were performed to determine the compatibility of the iron complexes with a range of transdermal patch adhesives (Table 15).
The compatibility of the complexes with the patch adhesives was assessed by mixing and visually checking the clarity of the mixture.
In the adhesives that were computable with the iron complexes the maximum drug loading of the complexes in the adhesive following solvent evaporation was determined. This was achieved by mixing the drug, adhesive and co-solvents until a clear solution was obtained at different drug:adhesive ratios and placing few drops of the mixture onto the patch backing sheet, leaving it to dry for 3-4 h, and examining the formed film on the surface of the backings for evidence of drug crystals.
Following complete drying of the solvents, the adhesive layer was covered by a release liner, compressed, and then cut using 34 mm circular manual die cutter (FIG. 23).

The nature of data set [6]: Iron complex reservoir solvent solubility screening. Type of data set: physicochemical. The source says:
Iron complex was again screened with a range of suitable excipients and solvents to formulate a solution of high concentration that could be loaded into the patch reservoir. The solvents screened included ethanol, methanol, PG, PEG400, SDS, Tween 85, Span 20, Kolliphore®, Natrsol M250 and dimethicone (Note: methanol is not suitable for formulation but it was used to increase solubility in the other solvents. It was evaporated prior to formulation testing).

The mark [7] stands for this setting: donor liquid paraffin:ethanol, 24 h.
[8] abbreviates: Iron maltol made at pH 7.4, 10 mg complex, 62.5 μL PG, 60 μL ethanol, 125 μL water, 62.5 μL Kolliphore.
Setting [9] is: Iron maltol made at pH 7.4, 10 mg complex, 125 μL PG, 60 μL ethanol, 62.5 μL water, 62.5 μL Kolliphore.

This note sets out measurements from US20260306421A1, “SYSTEMS AND METHODS FOR TRANSDERMAN PATCH DELIVERY” (VITAMAX PATCH WHOLESALER LLC, priority 2022, published 2026).

≈ marks a conversion by molar mass, not a printed value. Like-named read-outs stand apart in the source and are kept apart here.

In the case of `CCc1occc(=O)c1[O-].CCc1occc(=O)c1[O-].CCc1occc(=O)c1[O-].[Fe+3]` [Iron ethyl maltol made at pH 4, iron ethyl maltol], in data set [1] (PEG400), the Solubility of complex was found to be 15 mg/mL Iron and the “Solubility, equivalent elemental iron” value was “(1.8 mg/mL”. In addition, in data set [1] (PG), the Solubility of complex was 8.3 mg/mL Iron and the “Solubility, equivalent elemental iron” value turned out to be 1 mg/ml mg/mL.

By Solubility is commonly meant the concentration that dissolves in the medium under given conditions. By fraction remaining is commonly meant the share of the starting amount still present when the sample was taken. `C=C1CC[C@H](O)C/C1=C/C=C1\CCC[C@]2(C)[C@@H]([C@H](C)CCCC(C)C)CC[C@@H]12` [Cholecalciferol, reference compound]: the Solubility in data set [2] (organic solvent or mixture, solvent PG) was determined as 7800 ± 190 µg/mL (≈ 20.3 mM); in data set [2] (solvent PG + 5% water), 2400 ± 2 µg/mL; in data set [2] (solvent PG + 10% water) it was 1100 ± 5 µg/mL; in data set [2] (solvent PG + 20% water), 700 ± 4 µg/mL. For the same molecule, the figures for the amount remaining at 24 h in data set [3] (PG) and in data set [3] (extraction fluid 50:50 PG:ethanol) were 93 ± 13% and 92 ± 8%, respectively. Moreover, the “chemical stability (in words)” value in data set [3] (conclusions) is “indication of chemical instability”.

Turning to `CCC(=O)[O-].CCC(=O)[O-].CCC(=O)[O-].[Fe+3]` [Iron propionate made at pH 4, iron propionate], in data set [4] (applied as solution), the “iron passing through the skin” value was “neither the patch nor the solution allowed iron to pass through the skin”. Also, the “deposition into the skin” value in data set [4] (applied to the skin as a PG solution) stood at 8 μg/cm^2. In data set [4] (solutions, 24 h), the “permeation and deposition in the skin” value is “permeated and deposited in the skin”.

Consider iron oleate, for which the “deposition, all layers combined” value in data set [4] (donor Miglyol, 24 h) turned out to be 3.7 μg/cm^2; in data set [4] (setting [7]), 5.3 μg/cm^2. Also, the “elemental iron permeated the skin” value in data set [4] (donor Miglyol, 24 h) was determined as 2.5±1.8 μg/cm^2; in data set [4] (setting [7]), 4.4±1.5 μg/cm^2.

Turning to `Cc1occc(=O)c1[O-].Cc1occc(=O)c1[O-].Cc1occc(=O)c1[O-].[Fe+3]` [Iron maltol, iron maltol], the “Solubility of complex (visual)” value in data set [1] (Chloroform) is given as at least 20 mg/mL Iron; in data set [1] (Ethanol), at least 6 mg/mL Iron maltol*; in data set [1] (Ethyl acetate), under 6 mg/mL Iron maltol*; in data set [1] (Hexane), under 6 mg/mL Iron maltol*; in data set [1] (Methanol) it was at least 18 mg/mL Iron; in data set [1] (Oleic acid) it was under 6 mg/mL Iron maltol*. The “Solubility of complex (visual)” value in data set [1] (Propanol) and in data set [1] (Triaceten) was under 6 mg/mL Iron maltol* in each case. In addition, in data set [5], the compatibility with adhesives entry was “only compatible with DURO-TAK 9301”. The “(maximum) complex loading achieved in adhesive” value in data set [5] (methanol stock solution 10 mg/mL) amounted to 4%. Besides, the “complex loading achieved in adhesive patch” value in data set [5] (methanol stock solution 18 mg/mL) was determined as 8.5%. Moreover, the “Observation (solubility, complex)” value in data set [6] (Iron maltol made at pH 4, 10 mg complex, 50 μL 2% Nitrosol, 50 μL PG) came out at 22000 µg/mL. For the same molecule, the Observation result is given as “Precipitated” in data set [6] (Iron maltol made at pH 4, 20 mg complex, 0.1 mL Kolliphore, 0.1 mL PEG400); “Precipitated” in data set [6] (Iron maltol made at pH 4, 20 mg complex, 0.1 mL Kolliphore, 0.1 mL PEG400, 10% SDS); “Precipitated” in data set [6] (Iron maltol made at pH 4, 20 mg complex, 0.2 mL Kolliphore); “Precipitate” in data set [6] (Iron maltol made at pH 4, 100 mg complex, 2 mL methanol, 1 mL 80:20 PEG400:PEG1000, precipitate upon methanol evaporation); “Clear” in data set [6] (setting [8]); “Precipitated” in data set [6] (Iron maltol made at pH 7.4, 10 mg complex, 62.5 μL PG, 62.5 μL water, 125 μL Kolliphore). In addition, the Observation entry in data set [6] (setting [9]) is “Clear”; in data set [6] (Iron maltol made at pH 7.4, 20 mg complex, 6 μL Span 20, 0.125 mL ethanol, 0.5 mL PG), “Precipitated”; in data set [6] (Iron maltol made at pH 7.4, 30 mg complex, 6 μL Tween 85, 0.125 mL ethanol, 0.5 mL PG), “Precipitated”; in data set [6] (Iron maltol made at pH 7.4, 40 mg complex, 12 mg SDS, 0.125 mL ethanol, 0.5 mL PG), “Precipitated”. In addition, the “Visual solubility (complex)” value in data set [6] (setting [8]) and in data set [6] (setting [9]) was “(32 mg/mL” in each case.

As to `CCc1occc(=O)c1[O-].CCc1occc(=O)c1[O-].CCc1occc(=O)c1[O-].[Fe+3]` [Iron ethyl maltol made at pH 7.4, iron ethyl maltol], the “Solubility of complex (visual)” value in data set [1] (PEG400) is given as under 8 mg/mL Iron. For the same molecule, the figures for the Solubility of complex in data set [1] (PG) and in data set [1] (Saline) were 2.7 mg/mL Iron and 360 μg/mL Iron, respectively. In addition, the “Solubility, equivalent elemental iron” value in data set [1] (PG) is 320 µg/mL. The “Solubility, elemental iron” value in data set [1] (Saline) is reported as “(44 μg/mL”. The “Solubility in DURO-TAK 9301 patch” value was “Precipitated” in data set [5] (drug loading 2.5-10%, no permeation enhancer); “Clear” in data set [5] (drug loading 4%, 2 mg PEG400); “Clear” in data set [5] (drug loading 4%, 2 mg PG); “Clear” in data set [5] (drug loading 4%, no permeation enhancer); “Precipitated” in data set [5] (drug loading 5%, 2.5 mg Transcutol); “Precipitated” in data set [5] (drug loading 5%, 2.6 mg PEG400). The “Solubility in DURO-TAK 9301 patch” value in data set [5] (drug loading 5%, 5 mg PEG400) is on record as “Precipitated”; in data set [5] (drug loading 5%, 5 mg Transcutol), “Clear”; in data set [5] (drug loading 6%, 3.3 mg PEG400), “Precipitated”; in data set [5] (drug loading 7.5%, 4 mg Transcutol), “Precipitated”; in data set [5] (drug loading 7.5-10%, 4-5.5 mg PG), “Precipitated”; in data set [5] (drug loading 10-7.5%, 5.5-4 mg PEG400), “Precipitated”.
